Source: ChEMBL document CHEMBL3137667, “[Drug-induced liver injury; fourteenth updated edition of the bibliographic database of liver injuries and related drugs]” (Gastroenterol Clin Biol, 2004)

Legend:
[1] = human
[2] = human; remark: listed apart in the source
[3] = human; remark: listed apart in the source
[4] = human; remark: listed apart in the source
[5] = Highest frequency of moderate liver toxicity observed during clinical trials, expressed as a percentage. [column '% BIOL' in source]; conditions: human
[6] = human; remark: listed apart in the source
[7] = human, serum, 4383 h
[8] = human; remark: listed apart in the source
[9] = Highest frequency of acute liver toxicity observed during clinical trials, expressed as a percentage. [column '% AIGUE' in source]; conditions: human
[10] = Proposed mechanism(s) of liver damage. [column 'MEC' in source]; conditions: human
[11] = human, serum
[12] = human, serum; remark: listed apart in the source
[13] = human; remark: listed apart in the source
[14] = human; remark: listed apart in the source
[15] = human; remark: listed apart in the source
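For Hepatotoxicity (association with vascular disease) in this document: count of indexed literature references reporting vascular liver injury in humans, e.g. peliosis hepatitis, hepatic veno-occlusive disease or Budd-Chiari syndrome.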
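For Hepatotoxicity (benign tumour) in this document: value is a count of indexed literature references citing a benign tumour confirmed by histopathology.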
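For Hepatotoxicity (choleostasis) in this document: human cholestatic liver injury, shown by histopathology or by peak ALT or AST elevation over alkaline phosphatase ratio below 2, value counts indexed literature reports.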
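For Hepatotoxicity (chronic liver disease) in this document: chronic liver injury confirmed by histopathology or persistently raised serum aminotransferase activity beyond 6 months, value given as the count of indexed literature references.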
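For Hepatotoxicity (cirrhosis) in this document: value is a count of indexed literature references reporting cirrhosis confirmed by histopathology.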
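For Hepatotoxicity (cytolytic) in this document: human cytolytic liver injury, shown by histopathology or by a ratio above 5 of peak ALT or AST elevation to alkaline phosphatase elevation, value counts indexed references.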
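For Hepatotoxicity (granulomatous hepatitis) in this document: value is a count of indexed literature references reporting granulomatous liver disease confirmed by histopathology.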
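For Hepatotoxicity (malignant tumour) in this document: malignant tumour confirmed by histopathology, value gives the count of indexed literature references reporting it.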
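For Hepatotoxicity (severe hepatitis) in this document: human clinical data: severe hepatitis, meaning potentially life-threatening liver failure or clinically observed cases, the value counts how many indexed literature references report it.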
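For Hepatotoxicity (steatosis) in this document: steatosis confirmed by histopathology, value is the count of indexed references.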

Row | SMILES | Hepatotoxicity (severe hepatitis) [1] | Hepatotoxicity (benign tumour) [2] | Hepatotoxicity (association with vascular disease) [3] | Hepatotoxicity (malignant tumour) [4] | Hepatotoxicity (moderate) [5] | Hepatotoxicity (cirrhosis) [6] | Hepatotoxicity (chronic liver disease) [7] | Hepatotoxicity (granulomatous hepatitis) [8] | Hepatotoxicity (acute) [9] | Hepatotoxicity (mechanism) [10] | Hepatotoxicity (acute) [11] | Hepatotoxicity (moderate) [12] | Hepatotoxicity (cytolytic) [13] | Hepatotoxicity (steatosis) [14] | Hepatotoxicity (choleostasis) [15] | further results
1 | C=CCC1(C(C)C#CCC)C(=O)N=C(O)N(C)C1=O (stereo not given) [METHOHEXITAL] | 0 | 0 | 0 | 0 | 0% | 0 | 0 | 0 | 0% | Dose-dependant | 0 | 1 | 0 | 0 | 0 | 
2 | CCC1(CC)C(=O)NCC(C)C1=O (stereo not given) [METHYPRYLON] | 0 | 0 | 0 | 0 | 0% | 0 | 0 | 0 | 0% | Dose-dependant | 1 | 1 | 1 | 0 | 1 | 
3 | O=C1CN(/N=C/c2ccc([N+](=O)[O-])o2)C(=O)N1CO [NIFURTOINOL] | 0 | 0 | 0 | 0 | 0% | 0 | 2 | 0 | 0% | Allergic | 0 | 0 | 0 | 0 | 0 | 
4 | CO[C@@H]1[C@@H](OC(N)=O)[C@@H](O)[C@H](Oc2ccc3c(O)c(NC(=O)c4ccc(O)c(CC=C(C)C)c4)c(=O)oc3c2C)OC1(C)C [NOVOBIOCIN] | 2 | 0 | 0 | 0 | 40% | 0 | 0 | 0 | 0% | Allergic, Dose-dependant | 5 | 2 | 2 | 0 | 3 | 
5 | Nc1nc2[nH]cc(CCc3ccc(C(=O)N[C@@H](CCC(=O)O)C(=O)O)cc3)c2c(=O)[nH]1 [PEMETREXED] | 0 | 0 | 0 | 0 | 100% | 0 | 0 | 0 | 0% | Dose-dependant | 0 | 1 | 0 | 0 | 0 | 
6 | COc1ccc(OC)c(Cc2cnc3nc(N)nc(N)c3c2C)c1 [PIRITREXIM] | 0 | 0 | 0 | 0 | 12.1% | 0 | 0 | 0 | 0% | Dose-dependant | 0 | 7 | 0 | 0 | 0 | 
7 | CC(Cc1ccccc1)NCCC(c1ccccc1)c1ccccc1 (stereo not given) [PRENYLAMINE] | 0 | 0 | 0 | 0 | 7.7% | 0 | 0 | 0 | 0% | Dose-dependant | 0 | 1 | 0 | 0 | 0 | 
8 | [H]/N=C(/N)N[C@H]1[C@H](O)[C@@H](O)[C@H](O[C@@H]2O[C@@H](C)[C@](O)(C=O)[C@H]2O[C@@H]2O[C@@H](CO)[C@H](O)[C@@H](O)[C@@H]2NC)[C@@H](N/C(N)=N\[H])[C@@H]1O [STREPTOMYCIN] |  | 0 | 0 | 0 |  | 0 | 0 |  |  |  | 4 | 1 |  | 0 |  | Hepatotoxicity (severe hepatitis) ([1]; Liver): 0; Hepatotoxicity (moderate) ([5]; Liver): 0%; Hepatotoxicity (granulomatous hepatitis) ([8]; Liver): 0; Hepatotoxicity (acute) ([9]; Liver): 0%; Hepatotoxicity (mechanism) ([10]; Liver): Allergic; Hepatotoxicity (cytolytic) ([13]; Liver): 2; Hepatotoxicity (choleostasis) ([15]; Liver): 1
